Test results published in patent publication US5780303A, “Method and composition for treating thrombosis” (priority 1995, dated 1998).
Like-named read-outs stand apart in the source and are kept apart here.

Legend:
platelets [1] = assay type: cell-based, human; details: ADP 10 μM, citrated PRP; unit only in text b178 (printed μm); read-out: ADP-Stimulated Aggregation
Method: Platelet aggregation assays were performed following the methods of this Example or those of Example IX.G. Platelet aggregation was assessed using the method of Born, Nature 194:927-929 (1962), incorporated herein by reference. Briefly, the change in light transmission was measured through a stirred suspension of platelets in an aggregometer (Model 400 VS, Chrono-Log, Havertown, Pa., USA). Studies employing ADP were performed with platelet-rich plasma (PRP), which was obtained by low-speed centrifugation (200×g for 10 min.) of whole blood freshly drawn into trisodium citrate (at a final concentration of 11 mm). In studies using thrombin, the PRP was gel-filtered on Sepharose 2B in divalent ion-free Tyroda's solution containing 2% BSA. For all studies, the reference standard was platelet-poor plasma, which was obtained by centrifuging PRP at 1000×g for 5 min.
All aggregation studies were performed at 37° C. with a constantly stirred suspension of 3×10^8 platelets/ml. (Platelet count was determined with the aid of a hemacytometer.) Peptides and stimulants were added to these suspensions in 1% dilutions. […]

platelets [2] = test: Thrombin-stimulated platelet aggregation (Table I); assay type: cell-based, human; details: thrombin 2 U/ml, gel-filtered platelets; unit only in text b178 (printed μm)
Method: (§1) Platelet aggregation assays were performed following the methods of this Example or those of Example IX.G. Platelet aggregation was assessed using the method of Born, Nature 194:927-929 (1962), incorporated herein by reference. Briefly, the change in light transmission was measured through a stirred suspension of platelets in an aggregometer (Model 400 VS, Chrono-Log, Havertown, Pa., USA). […] In studies using thrombin, the PRP was gel-filtered on Sepharose 2B in divalent ion-free Tyroda's solution containing 2% BSA. For all studies, the reference standard was platelet-poor plasma, which was obtained by centrifuging PRP at 1000×g for 5 min.
(§2) All aggregation studies were performed at 37° C. with a constantly stirred suspension of 3×10^8 platelets/ml. (Platelet count was determined with the aid of a hemacytometer.) Peptides and stimulants were added to these suspensions in 1% dilutions. The PRP and gel-filtered platelets were used within three hours from the time of blood collection.
Peptide anti-aggregation potencies were determined from dose-responsive curves for the inhibition of the maximum aggregation responses stimulated by physiologic doses of ADP (10 μm) and thrombin (2 U/ml).

platelets [3] = test: Ex vivo inhibition of platelet aggregation (Table IV); assay type: in vivo; details: dose per code
Method: Using the method described in Example V to measure ex vivo inhibition of platelet aggregation and the method described in Example VII to measure bleeding, four additional peptides were tested. These peptides included 11J, 11Q, 11K and 11V.

platelets [4] = test: Ex vivo platelet aggregation in canine coronary thrombosis model; parameters: species or system dog
Method: For all ex vivo studies (see FIG. 3), control aggregation values were standardized to the percentages of light transmission observed in PRP and PPP samples (0% and 100%, respectively).
(§3) Animals were randomly assigned to two treatment groups: vehicle control (i.e., normal saline) or RGD peptides at various concentrations. Peptides were administered intra-atrially in both bolus and continuous injections. Each bolus injection consisted of 0.5 to 10 mg/kg and was administered 15 minutes before application of the current. A continuous infusion of the same peptide was then started immediately after completion of this initial injection. Animals received a 25 μg/kg/min to 200 μg/kg/min infusion. The anti-thrombotic effects of the peptides were monitored until 30 minutes after the occurrence of a persistent, occlusive thrombus or five hours after the initiation of electrical stimulation (whichever resulted first). If an occlusive thrombus had not developed within four hours after the initiation of current, the peptide infusion was stopped.
Platelet counts and ex vivo aggregation studies were performed one hour before and 1, 3, and 5 hours after application of anodal direct current.
Platelet aggregation was also determined ex vivo at one, three, and five hours after current application. For these studies, arachidonic acid, or collagen was again used to stimulate the platelets.

[5] = Peripheral blood flow (PBF) by laser doppler probe, rabbit ear; assay type: in vivo; details: time 10 min; bolus dose per drug
Method: In an alternative series of experiments, (Table 2) PBF was measured quantitatively with a laser dopler flow probe (Perimed). The probe was positioned securely over the vascular bed of one ear and flow monitored continuously. Each inhibitor was infused and CBT measured in the opposing ear. No arterial catheter was placed for blood sampling, consequently XPA […] in these animals.
As positive control, epinephrine was infused intravenously (1 mg over 2 minutes) at 60 minutes. The resulting vasoconstriction reduced flow to near 0 flow units within 5 minutes.

coronary thrombosis = test: Electrically induced canine coronary thrombosis, time to full occlusion; assay type: in vivo, dog
Method: Male mongrel dogs weighing 14 to 20 kg were selected based on proper aggregation of their platelets in response to arachidonic acid, collagen, and adenosine disphosphate (ADP) and based on similar weights and hemodynamic properties.
Before surgery, the animals were anesthetized with sodium pentobarbital (30 mg/kg, i.v.) and then intubated and ventilated on room air with positive pressure using a respirator (Harvard Apparatus, S. Natick, Mass.) at a volume of 30 ml/kg and a frequency of 12 breaths/min. Surgery, performed under aseptic conditions, was begun with the placement of cannulae into the left carotid artery and jugular vein for monitoring arterial blood pressure (Statham P23 pressure transducer, Gould, Inc., Cardiovascular Products, Oxnard, Calif.) and administering intravenous fluids.
The heart was exposed via a left thoracotomy through the 5th intercostal space. A 2-cm segment of the left circumflex coronary artery (LCCA) was isolated from surrounding tissue by blunt dissection. […] The intra-coronary electrode was constructed by attaching a 25-gauge hypodermic needle tip to a 30-gauge Teflon-insulated silver-coated copper wire. The mechanical occluder was constructed of stainless steel in a C shape with a Teflon screw (2 mm diameter) on top. It was adjusted to control vessel circumference and decrease the reactive hyperemic flow due to a 10-sec (full) occlusion by 50-70% without affecting basal coronary blood flow (FIG. 1). A monopolar epicardial electrode was sutured to the surface of the ventricle in the region of LCCA distribution to monitor ischemic changes in the electrocardiogram (ECG). The left atrium was cannulated with polythylene tubing for administration of the peptide. Continuous recordings of blood pressure, limb lead II ECG, epicardial electrogram, and mean and phasic LCCA blood flow were obtained on a Model 7 polygraph (Grass Instrument Co., Quincy, Mass.).
One hour after the completion of surgery, a 100 micro-amp continuous anodal direct current delivered from a 9 volt nickel-cadmium battery was applied to the intimal surface of the LCCA. The anode of the battery was in series with a 250,000 ohm potentiometer and the intraluminal coronary artery electrode. The electric circuit was completed by placing the cathode in a subcutaneous site. Electrical stimulation was applied for three hours. At the conclusion of each experiment, the heart was fibrillated electrically and quickly removed, and the LCCA was dissected free as far as possible to verify he position of the implanted anodal electrode.
as §3
Coronary thrombosis was quantified as the time to full occlusion. The effects of the various peptide treatments on coronary thrombosis is illustrated in FIG. 4.

[6] = test system: Gore-tex vascular graft thrombosis; test: Platelet and fibrinogen uptake by Gore-Tex grafts, baboon ex vivo shunt; assay type: in vivo
Method: Adult male baboons (weighing 16 to 25 kg) were used in these studies. These were sedated with ketamine hydrochloride (200 to 250 mg intramuscular injection) and maintained under anesthesia with sodium pentobarbital (50 to 75 mg administered intravenously as necessary).
Twenty-four hours before the ex vivo shunt was established, platelets were isolated from 500 ml of blood from the test animal and labelled with ca. of 500 microcuries of indium-111 oxine (Medi+Physics, Emeryville, Calif.), which irreversibly and specifically binds to platelets with an efficiency of 50%. Immediately after labelling, these platelets were then injected back into the animal and allowed to circulate for 24 hours. Immediately before the start of the study, fibrinogen that had been isolated from the animal and labelled with iodine-131 (DuPont Nuclear, Boston, Mass.) was also injected back into the animal. Also at this time, baseline determinations of the clotting and template bleeding times were made, and blood samples were drawn for hematology studies.
To establish the ex vivo shunt, the femoral artery and vein were percutaneously cannulated with introducer catheters (KMA Inc., Mansfield, Mass.). The catheters were then connected to medical-grade, heparin-coatedsilastic tubing (2.59 mm internal diameter, (Extracorporeal Medical Specialties, Inc., King of Prussia, Pa.). […] Finally, a 5 cm-long test segment of a 4 mm (internal diameter) vascular graft was inserted at the apex of the circuit. The graft used in these studies was Gore-tex (expanded polytetrafluoroethylene, (W. L. Gore and Associates, Inc., Flagstaff, Ariz.). An electromagnetic flow probe was then inserted into the tubing circuit to measure blood flow, which was maintained at 100 ml/min. by varying the resistance imported by a partially occluding screw clamp that was distal to the probe. Finally, a 5 cm-long test segment of a 4 mm (internal diameter) vascular graft was inserted at the apex of the circuit. The graft used in these studies was Gore-tex (expanded polytetrafluoroethylene, W. L. Gore and Associates, Inc., Flagstaff, Ariz.).
Platelet deposition onto the grafts was monitored by dynamic scanning with a gamma camera (Sigma 400, Ohio Nuclear, Inc., Sohon, Ohio), which detects the gamma radiation emitted by the ^111 indium-labelled platelets. Once the circuit was in place, the animal was placed under this camera, and blood flow was initiated. Scans were then taken at the rate of one frame per two minutes for two hours. The data from these scans were collected on a dedicated Digital MDA computer (Maynard, Mass.). […]

platelets [7] = test: Ex vivo platelet aggregation in baboon PRP; details: animal 2; PRP at 0, 1, 2 h
Method: At one- and two-hour time points, template bleeding times were measured, and blood samples were drawn to assess the hematology aggregation studies. Platelet aggregation studies were performed as described in Example V using ADP as the stimulus.
In addition, platelet aggregation studies were conducted on PRP derived from the second animal. Whole blood was drawn at three time points (0, 1 and 2 hours) of both control and experimental shunts.

platelets [8] = test: Platelet aggregation of small cyclic disulfide and lactam peptides; assay type: cell-based; details: for potency against platelet aggregation relative to 8×: comparator 8×
Method: as §1, with “Platelet” for “Platelet aggregation assays were performed following the methods of this Example or those of Example IX.G. Platelet”, “Tyrode's” for “Tyroda's”
as §2, with “platelets/mL.” for “platelets/ml.”

GP IIb/IIIa = GP IIb/IIIa (Homo sapiens, UniProt P05106+P08514); test: Differential inhibition of ligand binding to GP IIb/IIIa; details: fibrinogen vs fibronectin and vitronectin
GP IIb/IIIa, sequence (P08514 32-887 limits assumed): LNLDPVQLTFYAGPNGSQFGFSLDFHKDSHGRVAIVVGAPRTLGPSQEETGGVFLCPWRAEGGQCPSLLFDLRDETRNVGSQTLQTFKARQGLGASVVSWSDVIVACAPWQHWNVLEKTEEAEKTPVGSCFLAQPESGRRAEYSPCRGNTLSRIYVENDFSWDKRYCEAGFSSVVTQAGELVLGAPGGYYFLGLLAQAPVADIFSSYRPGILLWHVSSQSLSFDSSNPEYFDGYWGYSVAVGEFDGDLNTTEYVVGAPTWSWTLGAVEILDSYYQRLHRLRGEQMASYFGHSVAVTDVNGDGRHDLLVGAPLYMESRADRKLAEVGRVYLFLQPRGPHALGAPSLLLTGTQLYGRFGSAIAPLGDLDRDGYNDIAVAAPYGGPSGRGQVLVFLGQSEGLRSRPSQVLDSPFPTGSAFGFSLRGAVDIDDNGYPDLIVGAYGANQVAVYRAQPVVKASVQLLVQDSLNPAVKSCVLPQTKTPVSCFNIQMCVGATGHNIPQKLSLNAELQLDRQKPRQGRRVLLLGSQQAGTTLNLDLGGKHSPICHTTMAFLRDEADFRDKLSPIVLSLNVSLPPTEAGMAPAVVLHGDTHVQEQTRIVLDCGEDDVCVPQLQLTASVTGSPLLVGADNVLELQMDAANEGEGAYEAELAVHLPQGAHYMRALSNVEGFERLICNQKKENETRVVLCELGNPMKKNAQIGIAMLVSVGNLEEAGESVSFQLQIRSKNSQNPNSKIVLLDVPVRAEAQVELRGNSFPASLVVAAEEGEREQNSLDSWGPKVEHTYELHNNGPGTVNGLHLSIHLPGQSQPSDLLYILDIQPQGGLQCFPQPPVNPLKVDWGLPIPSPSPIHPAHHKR
GP IIb/IIIa, sequence (P08514 891-1039 partner limits assumed): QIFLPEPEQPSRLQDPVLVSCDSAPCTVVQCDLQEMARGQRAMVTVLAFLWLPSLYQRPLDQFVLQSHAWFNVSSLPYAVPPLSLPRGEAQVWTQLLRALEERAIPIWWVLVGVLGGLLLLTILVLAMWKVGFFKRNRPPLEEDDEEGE
GP IIb/IIIa, sequence (P05106 27-788): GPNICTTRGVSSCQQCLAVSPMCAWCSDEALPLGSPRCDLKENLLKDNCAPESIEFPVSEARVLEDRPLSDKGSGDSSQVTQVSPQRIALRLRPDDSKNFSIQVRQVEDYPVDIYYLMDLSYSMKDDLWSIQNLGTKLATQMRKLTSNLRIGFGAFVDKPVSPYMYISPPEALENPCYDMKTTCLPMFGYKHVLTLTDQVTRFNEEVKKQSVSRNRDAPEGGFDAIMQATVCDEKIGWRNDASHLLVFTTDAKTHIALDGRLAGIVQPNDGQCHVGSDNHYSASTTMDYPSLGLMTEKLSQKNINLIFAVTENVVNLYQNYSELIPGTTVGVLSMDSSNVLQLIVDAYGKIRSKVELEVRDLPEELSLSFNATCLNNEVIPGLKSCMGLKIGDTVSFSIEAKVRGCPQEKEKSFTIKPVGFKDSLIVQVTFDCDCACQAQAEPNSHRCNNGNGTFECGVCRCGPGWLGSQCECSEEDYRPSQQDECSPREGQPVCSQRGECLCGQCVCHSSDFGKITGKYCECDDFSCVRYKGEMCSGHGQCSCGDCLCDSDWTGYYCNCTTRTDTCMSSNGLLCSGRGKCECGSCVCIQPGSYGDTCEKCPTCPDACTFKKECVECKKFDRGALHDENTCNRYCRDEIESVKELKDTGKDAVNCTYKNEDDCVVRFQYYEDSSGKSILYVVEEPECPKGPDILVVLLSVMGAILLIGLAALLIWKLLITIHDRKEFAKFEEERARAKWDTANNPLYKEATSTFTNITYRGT

[9] = animal 1, two bolus IV injections of 10 mg/kg
[10] = animal 2, 10 mg/kg bolus IV plus 10 mg/kg/hr infusion for 2 h

In the case of G(dPen)GHRGDLRCA, the IC50 (platelets [1]) is reported as 5.28 ± 0.7 µM.

Work on R2 (Pen)GHGDTPCA yielded an IC50 (platelets [2]) of 2.7 µM and an IC50 (platelets [1]) of 8.2 µM.

With Ac-CNPRGD(Y-OMe)AC-NH2 [11K] the “ex vivo inhibition of platelet aggregation (%)” value (“ex vivo inhibition … (%)” for short) (platelets [3]) was over 98%.

In the case of Ac-CNPRGD(Y-OMe)EC-NH2 [11J], the “ex vivo inhibition … (%)” value (platelets [3]) is reported as over 98%.

With Ac-CNPKGD(Y-OMe)RC-NH2 [11Q] the “ex vivo inhibition … (%)” value (platelets [3]) was over 95%.

For R(Pen)GHRGDWRCR [4Q], the “ex vivo platelet activation by collagen” value (platelets [4]; 5 mg/kg) was “near-maximal inhibition”, the “ex vivo platelet response to ADP and AA” value (platelets [4]; 5 mg/kg, all three time points) was “completely unresponsive” and the “ex vivo platelet responsiveness” value (platelets [4]; 10 mg/kg, five-hour point) was “platelet responsiveness was slightly improved”. For the same substance, the “ex vivo platelet aggregation, all three stimuli” value (platelets [4]; 10 mg/kg, one- and three-hour time points) was “prevented platelet aggregation”, the “PBF (units)” value [5] was 9 units and the “time to full occlusion (coronary thrombosis)” value (from here on “time to full occlusion”) (coronary thrombosis; 5 mg/kg) was “significantly prolonged the time to occlusion”. For the same substance, the thrombus formation (coronary thrombosis; 5 mg/kg, circulating platelet levels one-third of normal) was “able to prevent thrombus formation” and the “time to full occlusion” value (coronary thrombosis; 10 mg/kg bolus plus infusion) was “completely prevented occlusion”.

For G(Pen)GHRGDLRCA [2G], the “reduction in 111In-platelet uptake by graft” value [6, 9] was 90%, the “reduction in 131I-fibrinogen uptake by graft” value [6, 9] was 79% and the “reduction in labelled fibrinogen uptake by graft” value [6, 10] was 78%. The “reduction in labelled platelet uptake by graft” value [6, 10] was 84%, the “ex vivo ADP-stimulated aggregation” value (platelets [4]; 10 mg/kg, 1, 3, 5 h) was “substantially inhibited” and the “time to full occlusion” value (coronary thrombosis; 10 mg/kg bolus plus infusion) was “did not significantly influence this frequency”. The “ex vivo platelet response to ADP (10 μM)” value (platelets [7]) was “completely unresponsive”.

With (Myr)RGD(O-Me-Y)RC-NH2 [16A] the “potency against platelet aggregation relative to 8×” value (platelets [8]) was “about two-fold more reactivity than 8×” and the IC50 (platelets [8]; read-out: inhibited platelet aggregation with an IC50) was 0.12 µM.

With Ac-CNPRGD(Y-OMe)RCNH2 [8x] the “differential inhibition of binding of ligands to GP IIb/IIIa” value (GP IIb/IIIa) was “inhibits the binding of fibrinogen to GP IIb/IIIa more than it inhibits the binding of fibronectin and vitronectin to the same integrin”.

For Ac-CNPRGD(Y-OMe)(Nle)C-NH2 [11V], the “ex vivo inhibition … (%)” value (platelets [3]) was over 98%.

In the case of R(Pen)GRGDWPCR [4R], the “ex vivo platelet response, all modes of stimulation” value (platelets [4]; 10 mg/kg, all time points) is reported as “unresponsive to all modes of stimulation at all time points”, the “time to full occlusion” value (coronary thrombosis; 3 mg/kg) is reported as “ineffective” and the “time to full occlusion” value (coronary thrombosis; 10 mg/kg bolus plus infusion) is reported as “prevented occlusion throughout the duration of the study”.

With RGD(O-Me-Y)RE-NH2 [21I] the “potency against platelet aggregation relative to 8×” value (platelets [8]) was “about three-fold more reactive than 8×”.
